{"source": "paper PMC5218480", "about": "(PLoS ONE, 2017)", "test_system": "MV-4-11 cells", "test": "Gene expression microarray analysis (Affymetrix PrimeView) and GSEA", "type": "cell-based, human", "parameters": "RFU PODN (11730768_x_at) / Fold change /veh PODN (11730768_x_at) / RFU LINC00158 (11744669_a_at) / Fold change /veh LINC00158 (11744669_a_at) / RFU DUSP10 (11751237_a_at) / Fold change /veh DUSP10 (11751237_a_at) / RFU ID3 (11757404_x_at) / Fold change /veh ID3 (11757404_x_at) / RFU PLEKHG5 (11737974_s_at) / Fold change /veh PLEKHG5 (11737974_s_at) / RFU LRRC4B (11730491_at) / Fold change /veh LRRC4B (11730491_at) / RFU GIMAP4 (11747438_a_at) / Fold change /veh GIMAP4 (11747438_a_at) / RFU KRT8 (11758183_x_at) / Fold change /veh KRT8 (11758183_x_at) / RFU CNN1 (11734310_a_at) / Fold change /veh CNN1 (11734310_a_at) / RFU VPS37D (11726825_at) / Fold change /veh VPS37D (11726825_at) / RFU C10orf10 (11716522_x_at) / Fold change /veh C10orf10 (11716522_x_at) / RFU KIR2DL2 /// KIR2DL4 /// KIR2DL5A /// KIR2DL5B /// KIR2DS1 /// KIR2DS2 /// KIR2DS3 /// KIR2DS4 /// KIR3DL3 /// KIR3DL3 /// KIR3DS1 (11738374_at) / Fold change /veh KIR2DL2 /// KIR2DL4 /// KIR2DL5A /// KIR2DL5B /// KIR2DS1 /// KIR2DS2 /// KIR2DS3 /// KIR2DS4 /// KIR3DL3 /// KIR3DL3 /// KIR3DS1 (11738374_at) / RFU C1QL1 (11718748_at) / Fold change /veh C1QL1 (11718748_at) / RFU TMPRSS4 (11747572_a_at) / Fold change /veh TMPRSS4 (11747572_a_at) / RFU HAMP (11756126_x_at) / Fold change /veh HAMP (11756126_x_at) / RFU RNFT2 (11725882_a_at) / Fold change /veh RNFT2 (11725882_a_at) / RFU NR4A2 (11747474_a_at) / Fold change /veh NR4A2 (11747474_a_at) / RFU ABCC12 (11746883_a_at) / Fold change /veh ABCC12 (11746883_a_at) / RFU TMEM136 (11760407_x_at) / Fold change /veh TMEM136 (11760407_x_at) / RFU CLDN22 /// WWC2 (11732394_at) / Fold change /veh CLDN22 /// WWC2 (11732394_at) / RFU HLA-DPB1 (11760878_x_at) / Fold change /veh HLA-DPB1 (11760878_x_at) / RFU SPINT1 (11716480_a_at) / Fold change /veh SPINT1 (11716480_a_at) / RFU GAP43 (11754022_s_at) / Fold change /veh GAP43 (11754022_s_at) / RFU A4GNT (11735810_at) / Fold change /veh A4GNT (11735810_at) / RFU PRB3 (11715151_x_at) / Fold change /veh PRB3 (11715151_x_at) / RFU TUBB4B (11761932_at) / Fold change /veh TUBB4B (11761932_at) / RFU CAPN14 (11732068_a_at) / Fold change /veh CAPN14 (11732068_a_at) / RFU TMCC2 (11721928_a_at) / Fold change /veh TMCC2 (11721928_a_at) / RFU IRGQ (11745062_a_at) / Fold change /veh IRGQ (11745062_a_at) / RFU FAM174B (11720279_a_at) / Fold change /veh FAM174B (11720279_a_at) / RFU TMPRSS4 (11748680_a_at) / Fold change /veh TMPRSS4 (11748680_a_at) / RFU FAM212B (11763350_a_at) / Fold change /veh FAM212B (11763350_a_at) / RFU PLEKHG5 (11743358_a_at) / Fold change /veh PLEKHG5 (11743358_a_at) / RFU ZSCAN30 (11745921_a_at) / Fold change /veh ZSCAN30 (11745921_a_at) / RFU CMKLR1 (11741424_a_at) / Fold change /veh CMKLR1 (11741424_a_at) / RFU LOC101060620 /// MAPK8IP1 (11723275_at) / Fold change /veh LOC101060620 /// MAPK8IP1 (11723275_at) / RFU SPTSSB (11747773_x_at) / Fold change /veh SPTSSB (11747773_x_at) / RFU PRSS12 (11739890_at) / Fold change /veh PRSS12 (11739890_at) / RFU BIN1 (11741810_x_at) / Fold change /veh BIN1 (11741810_x_at) / RFU WNT11 (11732464_a_at) / Fold change /veh WNT11 (11732464_a_at) / RFU C10orf10 (11716521_a_at) / Fold change /veh C10orf10 (11716521_a_at) / RFU C5orf56 (11738089_at) / Fold change /veh C5orf56 (11738089_at) / RFU CYB561 (11721691_x_at) / Fold change /veh CYB561 (11721691_x_at) / RFU ANKRD19P (11752326_a_at) / Fold change /veh ANKRD19P (11752326_a_at) / RFU OR2T12 /// OR2T33 /// OR2T8 (11738714_s_at) / Fold change /veh OR2T12 /// OR2T33 /// OR2T8 (11738714_s_at) / RFU VCAN (11748164_a_at) / Fold change /veh VCAN (11748164_a_at) / RFU JSRP1 (11732532_at) / Fold change /veh JSRP1 (11732532_at) / RFU KRTAP10-11 (11738290_x_at) / Fold change /veh KRTAP10-11 (11738290_x_at) / RFU MYO3A (11730013_a_at) / Fold change /veh MYO3A (11730013_a_at) / RFU EBF3 (11725865_a_at) / Fold change /veh EBF3 (11725865_a_at) / RFU CAMK2N1 (11719241_x_at) / Fold change /veh CAMK2N1 (11719241_x_at) / RFU C5orf56 (11738088_a_at) / Fold change /veh C5orf56 (11738088_a_at) / RFU OLFML3 (11715873_a_at) / Fold change /veh OLFML3 (11715873_a_at) / RFU LOC100653217 /// NTM (11731650_a_at) / Fold change /veh LOC100653217 /// NTM (11731650_a_at) / RFU MAPK11 (11762145_a_at) / Fold change /veh MAPK11 (11762145_a_at) / RFU FIZ1 (11724087_x_at) / Fold change /veh FIZ1 (11724087_x_at) / RFU OASL (11726364_x_at) / Fold change /veh OASL (11726364_x_at) / RFU SOX15 (11748057_x_at) / Fold change /veh SOX15 (11748057_x_at) / RFU CD79A (11719716_a_at) / Fold change /veh CD79A (11719716_a_at) / RFU HIST1H1D (11736915_at) / Fold change /veh HIST1H1D (11736915_at) / RFU CASKIN2 (11723855_a_at) / Fold change /veh CASKIN2 (11723855_a_at) / RFU LOC730098 (11760151_x_at) / Fold change /veh LOC730098 (11760151_x_at) / RFU OR4N2 (11742367_at) / Fold change /veh OR4N2 (11742367_at) / RFU PRRT2 (11749266_a_at) / Fold change /veh PRRT2 (11749266_a_at) / RFU SNX32 (11753110_a_at) / Fold change /veh SNX32 (11753110_a_at) / RFU CDHR5 (11726645_a_at) / Fold change /veh CDHR5 (11726645_a_at) / RFU RCAN1 (11760418_a_at) / Fold change /veh RCAN1 (11760418_a_at) / RFU FAM167A (11723789_a_at) / Fold change /veh FAM167A (11723789_a_at) / RFU FAM26E (11764081_at) / Fold change /veh FAM26E (11764081_at) / RFU ISYNA1 (11749810_s_at) / Fold change /veh ISYNA1 (11749810_s_at) / RFU ACY1 (11761880_at) / Fold change /veh ACY1 (11761880_at) / RFU 11764098_at / Fold change /veh 11764098_at / RFU SAMD14 (11745864_x_at) / Fold change /veh SAMD14 (11745864_x_at) / RFU NPB (11741838_a_at) / Fold change /veh NPB (11741838_a_at) / RFU TMPRSS6 (11731388_a_at) / Fold change /veh TMPRSS6 (11731388_a_at) / RFU KRTAP10-2 (11738614_at) / Fold change /veh KRTAP10-2 (11738614_at) / RFU ARHGAP8 /// PRR5-ARHGAP8 (11727945_x_at) / Fold change /veh ARHGAP8 /// PRR5-ARHGAP8 (11727945_x_at) / RFU KRTAP5-7 /// NADSYN1 (11734609_at) / Fold change /veh KRTAP5-7 /// NADSYN1 (11734609_at) / RFU RASL12 (11751679_a_at) / Fold change /veh RASL12 (11751679_a_at) / RFU CDKN2B (11736163_a_at) / Fold change /veh CDKN2B (11736163_a_at) / RFU PRF1 (11729649_at) / Fold change /veh PRF1 (11729649_at) / RFU, ZNF638 /// ZNF638-IT1 / Fold change vs veh, ZNF638 /// ZNF638-IT1 / RFU, PANK3 / Fold change vs veh, PANK3 / RFU, SH3YL1 / Fold change vs veh, SH3YL1 / RFU, ZEB2 / Fold change vs veh, ZEB2 / RFU, NRIP1 / Fold change vs veh, NRIP1 / RFU, PTTG1IP / Fold change vs veh, PTTG1IP / RFU, CAPN2 / Fold change vs veh, CAPN2 / RFU, MED14 / Fold change vs veh, MED14 / RFU, SNORA58 / Fold change vs veh, SNORA58 / RFU, C1orf63 / Fold change vs veh, C1orf63 / RFU, LRRFIP1 / Fold change vs veh, LRRFIP1 / RFU, NDUFAF7 / Fold change vs veh, NDUFAF7 / RFU, SLC12A2 / Fold change vs veh, SLC12A2 / RFU, IBTK / Fold change vs veh, IBTK / RFU, ESF1 / Fold change vs veh, ESF1 / Fold change vs veh, TMEM50B / RFU, TAOK1 / Fold change vs veh, TAOK1 / RFU, ACBD3 / Fold change vs veh, ACBD3 / RFU, TMA16 / Fold change vs veh, TMA16 / RFU, RWDD3 / Fold change vs veh, RWDD3 / RFU, BCAT1 / Fold change vs veh, BCAT1 / RFU, EDEM3 / Fold change vs veh, EDEM3 / RFU, TMEM33 / Fold change vs veh, TMEM33 / RFU, WDR75 / Fold change vs veh, WDR75 / RFU, AHCTF1 / Fold change vs veh, AHCTF1 / RFU, TFRC / Fold change vs veh, TFRC / RFU, ZDHHC17 / Fold change vs veh, ZDHHC17 / RFU, NOM1 / Fold change vs veh, NOM1 / RFU, ARL8B / Fold change vs veh, ARL8B / RFU, ZBTB11 / Fold change vs veh, ZBTB11 / RFU, TAMM41 / Fold change vs veh, TAMM41 / RFU, KIAA1704 /// LOC100996395 / Fold change vs veh, KIAA1704 /// LOC100996395 / RFU, ING1 / Fold change vs veh, ING1 / RFU, TRMT61B / Fold change vs veh, TRMT61B / RFU, FUBP3 / Fold change vs veh, FUBP3 / RFU, TP53 / Fold change vs veh, TP53 / RFU, TNKS2 / Fold change vs veh, TNKS2 / RFU, ZFP14 / Fold change vs veh, ZFP14 / RFU, ACTR2 / Fold change vs veh, ACTR2 / RFU, PPP3R1 / Fold change vs veh, PPP3R1 / RFU, PIK3R1 / Fold change vs veh, PIK3R1 / RFU, HNRNPA1 / Fold change vs veh, HNRNPA1 / RFU, RNF170 / Fold change vs veh, RNF170 / RFU, ZNF28 / Fold change vs veh, ZNF28 / RFU, RNGTT / Fold change vs veh, RNGTT / RFU, OGT / Fold change vs veh, OGT / RFU, BRD1 / Fold change vs veh, BRD1 / RFU, MARS / Fold change vs veh, MARS / RFU, ZNF655 / Fold change vs veh, ZNF655 / RFU, FAHD1 / Fold change vs veh, FAHD1 / RFU, BDP1 / Fold change vs veh, BDP1 / RFU, LRRCC1 / Fold change vs veh, LRRCC1 / RFU, ARID1A / Fold change vs veh, ARID1A / RFU, ZNF146 / Fold change vs veh, ZNF146 / RFU, ZNF330 / Fold change vs veh, ZNF330 / RFU, GPN3 / Fold change vs veh, GPN3 / RFU, C9orf123 / Fold change vs veh, C9orf123 / RFU, N4BP2L2 / Fold change vs veh, N4BP2L2 / RFU, ARFIP1 / Fold change vs veh, ARFIP1 / RFU, FAM179B / Fold change vs veh, FAM179B / RFU, BCL10 / Fold change vs veh, BCL10 / RFU, UHRF1BP1L / Fold change vs veh, UHRF1BP1L / RFU, BET1 / Fold change vs veh, BET1 / RFU, CNOT2 / Fold change vs veh, CNOT2 / RFU, ZNF268 / Fold change vs veh, ZNF268 / Fold change vs veh, ZNF507 / RFU, DGCR2 / Fold change vs veh, DGCR2 / RFU, WDSUB1 / Fold change vs veh, WDSUB1 / Fold change vs veh, HSP90B1 /// MIR3652 / RFU, ADSS / Fold change vs veh, ADSS / RFU, GK / Fold change vs veh, GK / RFU, ZNF148 / Fold change vs veh, ZNF148 / RFU, TAF9 / Fold change vs veh, TAF9 / RFU, SLC1A5 / Fold change vs veh, SLC1A5 / RFU, SLMO2 / Fold change vs veh, SLMO2 / RFU, ABCC4 / Fold change vs veh, ABCC4 / RFU, LOC101060439 /// RAP1B / Fold change vs veh, LOC101060439 /// RAP1B / RFU, RFX7 / Fold change vs veh, RFX7 / RFU, GTPBP10 / Fold change vs veh, GTPBP10 / RFU, CNEP1R1 / Fold change vs veh, CNEP1R1 / RFU, BIVM-ERCC5 /// ERCC5 / Fold change vs veh, BIVM-ERCC5 /// ERCC5 / RFU, ILF3 / Fold change vs veh, ILF3 / RFU 11762660_at / Fold change /veh 11762660_at / RFU VCAN (11757783_s_at) / Fold change /veh VCAN (11757783_s_at) / RFU DDX43 (11728927_at) / Fold change /veh DDX43 (11728927_at) / RFU KRT8 (11758188_x_at) / Fold change /veh KRT8 (11758188_x_at) / RFU NKD1 (11759106_at) / Fold change /veh NKD1 (11759106_at) / RFU SRD5A1 (11742802_a_at) / Fold change /veh SRD5A1 (11742802_a_at) / RFU TPSAB1 /// TPSB2 (11721975_s_at) / Fold change /veh TPSAB1 /// TPSB2 (11721975_s_at) / RFU GSTM3 (11746129_a_at) / Fold change /veh GSTM3 (11746129_a_at) / RFU IL23R (11737362_x_at) / Fold change /veh IL23R (11737362_x_at) / RFU TMEM51 (11727254_a_at) / Fold change /veh TMEM51 (11727254_a_at) / RFU PIWIL2 (11732686_x_at) / Fold change /veh PIWIL2 (11732686_x_at) / RFU ORM1 (11744905_x_at) / Fold change /veh ORM1 (11744905_x_at) / RFU CCDC152 (11743942_at) / Fold change /veh CCDC152 (11743942_at) / RFU ECM1 (11717891_a_at) / Fold change /veh ECM1 (11717891_a_at) / RFU IL23R (11748794_a_at) / Fold change /veh IL23R (11748794_a_at) / RFU TNFAIP8L3 (11732012_x_at) / Fold change /veh TNFAIP8L3 (11732012_x_at) / RFU MBOAT4 (11741988_at) / Fold change /veh MBOAT4 (11741988_at) / RFU 11764193_at / Fold change /veh 11764193_at / RFU TMEM53 (11763286_at) / Fold change /veh TMEM53 (11763286_at) / RFU MAGEB2 (11727129_at) / Fold change /veh MAGEB2 (11727129_at) / RFU TMEM200A (11744735_a_at) / Fold change /veh TMEM200A (11744735_a_at) / RFU CCDC152 (11751479_a_at) / Fold change /veh CCDC152 (11751479_a_at) / RFU FAM211A (11726209_a_at) / Fold change /veh FAM211A (11726209_a_at) / RFU RGS16 (11746705_a_at) / Fold change /veh RGS16 (11746705_a_at) / RFU VCAN (11755009_s_at) / Fold change /veh VCAN (11755009_s_at) / RFU RHOB (11743442_s_at) / Fold change /veh RHOB (11743442_s_at) / RFU RGS16 (11720943_a_at) / Fold change /veh RGS16 (11720943_a_at) / RFU RGS16 (11720944_at) / Fold change /veh RGS16 (11720944_at) / RFU, VPS4B / Fold change vs veh, VPS4B / RFU, CREB1 / Fold change vs veh, CREB1 / RFU, DNAJC13 / Fold change vs veh, DNAJC13 / RFU, GNAQ / Fold change vs veh, GNAQ / RFU, CDK5R1 / Fold change vs veh, CDK5R1 / RFU, ZRANB3 / Fold change vs veh, ZRANB3 / RFU, CUL4A / Fold change vs veh, CUL4A / RFU, CCNY / Fold change vs veh, CCNY / RFU, UFL1 / Fold change vs veh, UFL1 / RFU, COG3 / Fold change vs veh, COG3 / RFU, DIAPH2 / Fold change vs veh, DIAPH2 / RFU, SKA2 / Fold change vs veh, SKA2 / RFU, AFF3 / Fold change vs veh, AFF3 / RFU, LMF1 / Fold change vs veh, LMF1 / RFU, IPO11 / Fold change vs veh, IPO11 / RFU, DFFB / Fold change vs veh, DFFB / RFU, FOXP1 / Fold change vs veh, FOXP1 / RFU, CARD8 / Fold change vs veh, CARD8 / RFU, STRN3 / Fold change vs veh, STRN3 / RFU, ADK / Fold change vs veh, ADK / RFU, RASSF2 / Fold change vs veh, RASSF2 / RFU, WIPF1 / Fold change vs veh, WIPF1 / RFU, LARP1B / Fold change vs veh, LARP1B / RFU, RASA1 / Fold change vs veh, RASA1 / RFU, RB1 / Fold change vs veh, RB1 / RFU, PPFIA1 / Fold change vs veh, PPFIA1 / RFU, MAT2A / Fold change vs veh, MAT2A / RFU, CCT5 / Fold change vs veh, CCT5 / RFU, WDR92 / Fold change vs veh, WDR92 / RFU, CUX1 / Fold change vs veh, CUX1 / RFU, TTC7A / Fold change vs veh, TTC7A / RFU, TMEM135 / Fold change vs veh, TMEM135 / RFU, DEPTOR / Fold change vs veh, DEPTOR / RFU, CPM / Fold change vs veh, CPM / RFU, DNAJB6 / Fold change vs veh, DNAJB6 / RFU, CACNA2D3 / Fold change vs veh, CACNA2D3 / RFU, DTX4 / Fold change vs veh, DTX4 / RFU, TFCP2 / Fold change vs veh, TFCP2 / RFU, GMCL1 /// GMCL1P1 / Fold change vs veh, GMCL1 /// GMCL1P1 / RFU, AEBP2 / Fold change vs veh, AEBP2 / RFU, SNHG1 /// SNORD22 /// SNORD25 /// SNORD26 /// SNORD27 /// SNORD28 /// SNORD29 /// SNORD31 / Fold change vs veh, SNHG1 /// SNORD22 /// SNORD25 /// SNORD26 /// SNORD27 /// SNORD28 /// SNORD29 /// SNORD31 / Fold change (Aza/veh), C12orf56 (ProbeSet 11735607_a_at) / Fold change (ACY-1035/veh), C12orf56 (ProbeSet 11735607_a_at) / Fold change (Aza/veh), FGFR1OP (ProbeSet 11751329_s_at) / Fold change (ACY-1035/veh), FGFR1OP (ProbeSet 11751329_s_at) / Fold change (Aza/veh), VPS36 (ProbeSet 11739960_a_at) / Fold change (ACY-1035/veh), VPS36 (ProbeSet 11739960_a_at) / RFU SYPL1 (11715823_x_at) / Fold change /veh SYPL1 (11715823_x_at) / RFU IGFBP7 (11715501_s_at) / Fold change /veh IGFBP7 (11715501_s_at) / RFU REEP3 (11722064_at) / Fold change /veh REEP3 (11722064_at) / RFU IGLL1 (11728026_x_at) / Fold change /veh IGLL1 (11728026_x_at): dose or concentration left out as unconfirmed", "conditions": "ProbeSet 11749645_x_at; LIST B"}
{"smiles": "Nc1ncn([C@@H]2O[C@H](CO)[C@@H](O)[C@H]2O)c(=O)n1", "note": "[azacitidine]", "values": [{"measurement": "RFU, ZNF268", "result": 156.52, "unit": "RFU"}]}
